Measurements published in the supplement of paper PMC4862054.

Legend:
Conditions in all cases: incubation time: 72 h
[1] = system: BT-549; experiment: normalised viability (% of control), CellTiter-Blue; higher = more viable cells (about 100 = DMSO control)
In short: (§1)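 384-well plates were pre-loaded with compound in 5 µl medium before 20 µl of breast cancer cell suspension was seeded. Following 72 h incubation, 2.5 µl CellTiter-Blue reagent was added for 2 h at 37 °C. Fluorescence was read at 560/590 nm and plates were normalised to vehicle (100) and a positive kill control (0), checked by Z'-factor. Normalised viability is reported at a single listed concentration of the series.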

[2] = system: CAL-120; experiment: as above
In short: as §1

[3] = system: CAL-51; experiment: as above
In short: as §1

[4] = system: CAL-85-1; experiment: as above
In short: as §1

[5] = system: DU-4475; experiment: as above
In short: as §1

[6] = system: HCC1143; experiment: as above
In short: as §1

[7] = system: HCC1599; experiment: as above
In short: as §1

[8] = system: HCC1937; experiment: as above
In short: as §1

[9] = system: Hs578T; experiment: as above
In short: as §1

[10] = system: MDA-MB-453; experiment: as above
In short: as §1

[11] = system: MDA-MB-468; experiment: as above
In short: as §1

[12] = system: MFM-223; experiment: as above
In short: as §1

[13] = system: SK-BR-3; experiment: as above
In short: as §1

[14] = system: BT-474; experiment: drug sensitivity score (DSS), CellTiter-Blue viability (DSS (AUC-based score)); higher = stronger viability inhibition; extreme values may be limits of the assay
Procedure: (§2)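 DSRT with the CellTiter-Blue (resazurin reduction) viability readout, fluorescence 560/590 nm, 72 h incubation. Plates were normalised to DMSO and benzethonium chloride controls. DSS is computed from the area under the fitted dose-response curve (5 or 9 concentrations).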

[15] = system: BT-549; experiment: as above
Procedure: as §2

[16] = system: CAL-120; experiment: as above
Procedure: as §2

[17] = system: CAL-51; experiment: as above
Procedure: as §2

[18] = system: CAL-85-1; experiment: as above
Procedure: as §2

[19] = system: DU-4475; experiment: as above
Procedure: as §2

[20] = system: HCC1143; experiment: as above
Procedure: as §2

[21] = system: HCC1599; experiment: as above
Procedure: as §2

[22] = system: HCC1937; experiment: as above
Procedure: as §2

[23] = system: HDQ-P1; experiment: as above
Procedure: as §2

[24] = system: Hs578T; experiment: as above
Procedure: as §2

[25] = system: MDA-MB-436; experiment: as above
Procedure: as §2

[26] = system: MDA-MB-453; experiment: as above
Procedure: as §2

[27] = system: MDA-MB-468; experiment: as above
Procedure: as §2

[28] = system: MFM-223; experiment: as above
Procedure: as §2

[29] = system: SK-BR-3; experiment: as above
Procedure: as §2

SMILES: CN(C)CCN1C(=O)c2cccc3cc(N)cc(c23)C1=O [Amonafide]
- normalised viability ([1]; 10000 nM): 47.9%
- normalised viability ([2]; 10000 nM): 24.3%
- normalised viability ([3]; 100 nM): 104%
- normalised viability ([4]; 100 nM): 87.8%
- normalised viability ([5]; 100 nM): 84.6%
- normalised viability ([6]; 10000 nM): 43.5%
- normalised viability ([7]; 10000 nM): 47.5%
- normalised viability ([8]; 10000 nM): 29.5%
- normalised viability ([9]; 10000 nM): 47.6%
- normalised viability ([10]; 100 nM): 81%
- normalised viability ([11]; 10000 nM): 41.3%
- normalised viability ([12]; 10000 nM): 31.6%
- normalised viability ([13]; 10000 nM): 20.8%
- drug sensitivity score [14]: 0.749
- drug sensitivity score [15]: 0.97
- drug sensitivity score [16]: 5.69
- drug sensitivity score [17]: 5.33
- drug sensitivity score [18]: 3.78
- drug sensitivity score [19]: 5.45
- drug sensitivity score [20]: 0.876
- drug sensitivity score [21]: 1.04
- drug sensitivity score [22]: 7.96
- drug sensitivity score [23]: 2.28
- drug sensitivity score [24]: 1.1
- drug sensitivity score [25]: 3.57
- drug sensitivity score [26]: 4.67
- drug sensitivity score [27]: 1.26
- drug sensitivity score [28]: 1.69
- drug sensitivity score [29]: 2.78

SMILES: Cn1cncc1[C@@](N)(c1ccc(Cl)cc1)c1ccc2c(c1)c(-c1cccc(Cl)c1)cc(=O)n2C [Tipifarnib]
- normalised viability ([1]; 10000 nM): 30.1%
- normalised viability ([2]; 10000 nM): 32.7%
- normalised viability ([3]; 100 nM): 63.4%
- normalised viability ([4]; 100 nM): 76.8%
- normalised viability ([5]; 100 nM): 54.9%
- normalised viability ([6]; 10000 nM): 59.7%
- normalised viability ([7]; 10000 nM): 51.7%
- normalised viability ([8]; 10000 nM): 32.3%
- normalised viability ([9]; 10000 nM): 39.3%
- normalised viability ([10]; 100 nM): 73.6%
- normalised viability ([11]; 10000 nM): 26.4%
- normalised viability ([12]; 10000 nM): 29.7%
- normalised viability ([13]; 10000 nM): 23.8%
- drug sensitivity score [14]: 5.35
- drug sensitivity score [15]: 5.66
- drug sensitivity score [16]: 12.4
- drug sensitivity score [17]: 9.74
- drug sensitivity score [18]: 6.87
- drug sensitivity score [19]: 18.5
- drug sensitivity score [20]: 14.7
- drug sensitivity score [21]: 9.57
- drug sensitivity score [22]: 15.3
- drug sensitivity score [23]: 13.3
- drug sensitivity score [24]: 5.75
- drug sensitivity score [25]: 0
- drug sensitivity score [26]: 10.5
- drug sensitivity score [27]: 3.09
- drug sensitivity score [28]: 7.2
- drug sensitivity score [29]: 12.6

SMILES: C[C@]12CC[C@H](O)CC1=CC[C@@H]1[C@@H]2CC[C@]2(C)C(c3cccnc3)=CC[C@@H]12 [Abiraterone]
- normalised viability ([1]; 5000 nM): 119%
- normalised viability ([2]; 5000 nM): 92.1%
- normalised viability ([3]; 50 nM): 104%
- normalised viability ([4]; 50 nM): 96.4%
- normalised viability ([5]; 50 nM): 90.2%
- normalised viability ([6]; 5000 nM): 83%
- normalised viability ([7]; 5000 nM): 120%
- normalised viability ([8]; 5000 nM): 101%
- normalised viability ([9]; 5000 nM): 110%
- normalised viability ([10]; 50 nM): 102%
- normalised viability ([11]; 5000 nM): 111%
- normalised viability ([12]; 5000 nM): 87.8%
- normalised viability ([13]; 5000 nM): 93.5%
- drug sensitivity score [14]: 0
- drug sensitivity score [15]: 0
- drug sensitivity score [16]: 0
- drug sensitivity score [17]: 0
- drug sensitivity score [18]: 0
- drug sensitivity score [19]: 0
- drug sensitivity score [20]: 0
- drug sensitivity score [21]: 0
- drug sensitivity score [22]: 0
- drug sensitivity score [23]: 0
- drug sensitivity score [24]: 0
- drug sensitivity score [25]: 0
- drug sensitivity score [26]: 0
- drug sensitivity score [27]: 0
- drug sensitivity score [28]: 0
- drug sensitivity score [29]: 0

SMILES: Cn1c(=O)n(-c2ccc(C(C)(C)C#N)cc2)c2c3cc(-c4cnc5ccccc5c4)ccc3ncc21 [NVP-BEZ235]
- normalised viability ([1]; 1000 nM): 18.2%
- normalised viability ([2]; 1000 nM): 14.4%
- normalised viability ([3]; 10 nM): 54.6%
- normalised viability ([4]; 10 nM): 68.6%
- normalised viability ([5]; 10 nM): 107%
- normalised viability ([6]; 1000 nM): 30.1%
- normalised viability ([7]; 1000 nM): 55.2%
- normalised viability ([8]; 1000 nM): 45.5%
- normalised viability ([9]; 1000 nM): 24.7%
- normalised viability ([10]; 10 nM): 49.9%
- normalised viability ([11]; 1000 nM): 28.1%
- normalised viability ([12]; 1000 nM): 24.1%
- normalised viability ([13]; 1000 nM): 15.6%
- drug sensitivity score [14]: 12
- drug sensitivity score [15]: 18.5
- drug sensitivity score [16]: 20.4
- drug sensitivity score [17]: 20.7
- drug sensitivity score [18]: 16.2
- drug sensitivity score [19]: 13.5
- drug sensitivity score [20]: 15.4
- drug sensitivity score [21]: 8.13
- drug sensitivity score [22]: 14.5
- drug sensitivity score [23]: 16.2
- drug sensitivity score [24]: 18.4
- drug sensitivity score [25]: 5.52
- drug sensitivity score [26]: 21.6
- drug sensitivity score [27]: 13.3
- drug sensitivity score [28]: 19.7
- drug sensitivity score [29]: 15.9

SMILES: CCCCCCCCc1ccc(CCC(N)(CO)CO)cc1 [Fingolimod]
- normalised viability ([1]; 10000 nM): 8.23%
- normalised viability ([2]; 10000 nM): 2.23%
- normalised viability ([3]; 100 nM): 111%
- normalised viability ([4]; 100 nM): 96.6%
- normalised viability ([5]; 100 nM): 107%
- normalised viability ([6]; 10000 nM): 69.5%
- normalised viability ([7]; 10000 nM): 128%
- normalised viability ([8]; 10000 nM): 2.06%
- normalised viability ([9]; 10000 nM): 2.92%
- normalised viability ([10]; 100 nM): 97.7%
- normalised viability ([11]; 10000 nM): 0.62%
- normalised viability ([12]; 10000 nM): 9.42%
- normalised viability ([13]; 10000 nM): 3.17%
- drug sensitivity score [14]: 4.46
- drug sensitivity score [15]: 6.99
- drug sensitivity score [16]: 5.43
- drug sensitivity score [17]: 0
- drug sensitivity score [18]: 2.9
- drug sensitivity score [19]: 0
- drug sensitivity score [20]: 0
- drug sensitivity score [21]: 0
- drug sensitivity score [22]: 5.93
- drug sensitivity score [23]: 3.07
- drug sensitivity score [24]: 5.16
- drug sensitivity score [25]: 8.37
- drug sensitivity score [26]: 3.02
- drug sensitivity score [27]: 5.1
- drug sensitivity score [28]: 3.93
- drug sensitivity score [29]: 4.64

SMILES: O=C(O)CCCc1ccc(N(CCCl)CCCl)cc1 [Chlorambucil]
- normalised viability ([1]; 10000 nM): 74.7%
- normalised viability ([2]; 10000 nM): 91%
- normalised viability ([3]; 100 nM): 107%
- normalised viability ([4]; 100 nM): 98.6%
- normalised viability ([5]; 100 nM): 112%
- normalised viability ([6]; 10000 nM): 96%
- normalised viability ([7]; 10000 nM): 92.5%
- normalised viability ([8]; 10000 nM): 52.8%
- normalised viability ([9]; 10000 nM): 87.5%
- normalised viability ([10]; 100 nM): 114%
- normalised viability ([11]; 10000 nM): 81.2%
- normalised viability ([12]; 10000 nM): 85.8%
- normalised viability ([13]; 10000 nM): 80.4%
- drug sensitivity score [14]: 0
- drug sensitivity score [15]: 0
- drug sensitivity score [16]: 0
- drug sensitivity score [17]: 0
- drug sensitivity score [18]: 0
- drug sensitivity score [19]: 0
- drug sensitivity score [20]: 0
- drug sensitivity score [21]: 0
- drug sensitivity score [22]: 6.58
- drug sensitivity score [23]: 0
- drug sensitivity score [24]: 0
- drug sensitivity score [25]: 0
- drug sensitivity score [26]: 0
- drug sensitivity score [27]: 4.32
- drug sensitivity score [28]: 0
- drug sensitivity score [29]: 0
